Assay results: the NIST ThermoML archive (doi:10.1021/acs.jced.8b00387)

Test: xn = mol fraction of the nth substance listed
Settings: for viscosity / mass density / speed of sound: 102 kPa, Liquid; for viscosity: Concentric cylinders viscometry; for mass density: Vibrating tube method; for speed of sound: Frequency=3 MHz, Single path-length method; for surface tension liquid-gas: 295 K, Pendant drop shape

CC(CC(C)(C)C)CC(C)(C)C [2,2,4,6,6-pentamethylheptane] + CCCCc1ccccc1
Settings	mass density [kg/m3]	speed of sound [m/s]	viscosity [mPa·s]
253.15 K, x2 = 0.1001	782.1	–	–
253.15 K, x2 = 0.1015	–	–	2.82
253.15 K, x2 = 0.2	791.5	–	–
253.15 K, x2 = 0.2005	–	–	2.63
253.15 K, x2 = 0.2999	–	–	2.49
253.15 K, x2 = 0.3001	801	–	–
253.15 K, x2 = 0.4001	–	–	2.37
253.15 K, x2 = 0.4006	811.2	–	–
253.15 K, x2 = 0.4996	–	–	2.28
253.15 K, x2 = 0.5	822.2	–	–
253.15 K, x2 = 0.6	–	–	2.24
253.15 K, x2 = 0.6002	834.1	–	–
253.15 K, x2 = 0.6999	846.8	–	2.2
253.15 K, x2 = 0.8	–	–	2.19
253.15 K, x2 = 0.8009	860	–	–
253.15 K, x2 = 0.9	876.1	–	2.21
288.15 K, x2 = 0.1001	756.92	1234.1	–
288.15 K, x2 = 0.2	765.57	1245.3	–
288.15 K, x2 = 0.3001	774.88	1257.1	–
288.15 K, x2 = 0.4006	784.92	1270	–
288.15 K, x2 = 0.5	795.63	1283.8	–
288.15 K, x2 = 0.6002	807.34	1298.7	–
288.15 K, x2 = 0.6999	819.87	1315	–
288.15 K, x2 = 0.8009	833.77	1332.9	–
288.15 K, x2 = 0.9	848.29	1352.1	–
293.15 K, x2 = 0.1001	753.25	1214.1	–
293.15 K, x2 = 0.1015	–	–	1.24
293.15 K, x2 = 0.2	761.88	1225.4	–
293.15 K, x2 = 0.2005	–	–	1.18
293.15 K, x2 = 0.2999	–	–	1.13
293.15 K, x2 = 0.3001	771.17	1237.2	–
293.15 K, x2 = 0.4001	–	–	1.08
293.15 K, x2 = 0.4006	781.17	1250	–
293.15 K, x2 = 0.4996	–	–	1.05
293.15 K, x2 = 0.5	791.85	1263.8	–
293.15 K, x2 = 0.6	–	–	1.02
293.15 K, x2 = 0.6002	803.52	1278.9	–
293.15 K, x2 = 0.6999	816.01	1295	1.01
293.15 K, x2 = 0.8	–	–	0.995
293.15 K, x2 = 0.8009	829.8	1312.9	–
293.15 K, x2 = 0.9	844.33	1332.1	0.997
303.15 K, x2 = 0.1001	745.91	1175	–
303.15 K, x2 = 0.1015	–	–	1.07
303.15 K, x2 = 0.2	754.49	1186.5	–
303.15 K, x2 = 0.2005	–	–	1.03
303.15 K, x2 = 0.2999	–	–	0.989
303.15 K, x2 = 0.3001	763.72	1198	–
303.15 K, x2 = 0.4001	–	–	0.951
303.15 K, x2 = 0.4006	773.66	1210.8	–
303.15 K, x2 = 0.4996	–	–	0.924
303.15 K, x2 = 0.5	784.27	1224.6	–
303.15 K, x2 = 0.6	–	–	0.904
303.15 K, x2 = 0.6002	795.86	1240.1	–
303.15 K, x2 = 0.6999	808.28	1255.8	0.887
303.15 K, x2 = 0.8	–	–	0.874
303.15 K, x2 = 0.8009	821.96	1274.1	–
303.15 K, x2 = 0.9	836.41	1292.8	0.874
313.15 K, x2 = 0.1001	738.55	1136.7	–
313.15 K, x2 = 0.1015	–	–	0.92
313.15 K, x2 = 0.2	747.07	1148.4	–
313.15 K, x2 = 0.2005	–	–	0.89
313.15 K, x2 = 0.2999	–	–	0.862
313.15 K, x2 = 0.3001	756.25	1159.8	–
313.15 K, x2 = 0.4001	–	–	0.837
313.15 K, x2 = 0.4006	766.12	1172.6	–
313.15 K, x2 = 0.4996	–	–	0.814
313.15 K, x2 = 0.5	776.66	1186.3	–
313.15 K, x2 = 0.6	–	–	0.798
313.15 K, x2 = 0.6002	788.17	1201.9	–
313.15 K, x2 = 0.6999	800.51	1217.5	0.781
313.15 K, x2 = 0.8	–	–	0.77
313.15 K, x2 = 0.8009	814.1	1235.9	–
313.15 K, x2 = 0.9	828.46	1254.4	0.77
323.15 K, x2 = 0.1001	731.16	1099.4	–
323.15 K, x2 = 0.1015	–	–	0.813
323.15 K, x2 = 0.2	739.61	1111	–
323.15 K, x2 = 0.2005	–	–	0.784
323.15 K, x2 = 0.2999	–	–	0.762
323.15 K, x2 = 0.3001	748.74	1122.4	–
323.15 K, x2 = 0.4001	–	–	0.735
323.15 K, x2 = 0.4006	758.55	1135.1	–
323.15 K, x2 = 0.4996	–	–	0.718
323.15 K, x2 = 0.5	769.02	1148.8	–
323.15 K, x2 = 0.6	–	–	0.703
323.15 K, x2 = 0.6002	780.45	1164.4	–
323.15 K, x2 = 0.6999	792.72	1179.9	0.692
323.15 K, x2 = 0.8	–	–	0.682
323.15 K, x2 = 0.8009	806.2	1198.3	–
323.15 K, x2 = 0.9	820.47	1216.8	0.683
333.15 K, x2 = 0.1001	723.71	1063	–
333.15 K, x2 = 0.1015	–	–	0.715
333.15 K, x2 = 0.2	732.11	1074.5	–
333.15 K, x2 = 0.2005	–	–	0.692
333.15 K, x2 = 0.2999	–	–	0.675
333.15 K, x2 = 0.3001	741.19	1086.1	–
333.15 K, x2 = 0.4001	–	–	0.653
333.15 K, x2 = 0.4006	750.94	1098.7	–
333.15 K, x2 = 0.4996	–	–	0.636
333.15 K, x2 = 0.5	761.34	1112.3	–
333.15 K, x2 = 0.6	–	–	0.627
333.15 K, x2 = 0.6002	772.69	1127.7	–
333.15 K, x2 = 0.6999	784.88	1143.2	0.617
333.15 K, x2 = 0.8	–	–	0.61
333.15 K, x2 = 0.8009	798.16	1161.4	–
333.15 K, x2 = 0.9	812.44	1180	0.611

Settings	surface tension liquid-gas [mN/m]
x2 = 0.1001	22
x2 = 0.2	22.2
x2 = 0.3001	22.7
x2 = 0.4006	23.1
x2 = 0.5	23.5
x2 = 0.6002	24
x2 = 0.6999	24.8
x2 = 0.8009	25.7
x2 = 0.8985	26.7
